The values that follow come from ChEMBL document CHEMBL1121912, “Purine acyclic nucleosides. Nitrogen isosteres of 9-[(2-hydroxyethoxy)methyl]guanine as candidate antivirals” (J Med Chem, 1981).

Calls of active or inactive are those of the source. No cut-off for these calls is given here.

Usually IC50 stands for the concentration that gives 50% inhibition. A high value points to weaker potency in that assay.

Holding throughout (format): functional, organism-based
In assay [1] the test system is Human alphaherpesvirus 1. The experiment in a line: The compound was tested for plaque inhibition in HSV-1 in cell culture; - = in active at 50 ug per disk.
For assay [2], the system named is Human alphaherpesvirus 1. The experiment in a line: The compound was tested for plaque inhibition in HSV-1 in cell culture, activity is determined by plaque reduction assay. Background: Plaque reduction counts the foci of infection that form in a cell layer.
Assay [3] relates to Human alphaherpesvirus 1. The experiment in a line: The compound was tested for plaque inhibition in HSV-1 in cell culture; +=active at 50 ug per disk.

In the case of `Nc1nc(O)c2ncn(COCCNCCO)c2n1`, in assay [1], the Plaque inhibition result is “inactive”.
Still for that read-out and setting: for `CC(=O)NCCOCn1cnc2c(O)nc(N)nc21` the value was “inactive”; for `NCCOCCOCn1cnc2c(O)nc(N)nc21`, “inactive”; for `NCCOCn1cnc2c(N)nc(N)nc21`, “inactive”.
In assay [2], `Nc1nc2c(ncn2COCCO)c(=O)[nH]1` [ACYCLOVIR] gave a half-inhibitory concentration (IC50) of 0.1 µM. For the same compound, the Plaque inhibition result in assay [3] is “active at 50 ug per disk”.
The matching figures for `NCCOCn1cnc2c(O)nc(N)nc21`: 8 µM and “active at 50 ug per disk”.
